Type in all cases: cell-based
The target in series [1] is T1, Oxysterols receptor LXR-alpha (Homo sapiens, UniProt Q13133).
T1 sequence (Q13133 whole entry): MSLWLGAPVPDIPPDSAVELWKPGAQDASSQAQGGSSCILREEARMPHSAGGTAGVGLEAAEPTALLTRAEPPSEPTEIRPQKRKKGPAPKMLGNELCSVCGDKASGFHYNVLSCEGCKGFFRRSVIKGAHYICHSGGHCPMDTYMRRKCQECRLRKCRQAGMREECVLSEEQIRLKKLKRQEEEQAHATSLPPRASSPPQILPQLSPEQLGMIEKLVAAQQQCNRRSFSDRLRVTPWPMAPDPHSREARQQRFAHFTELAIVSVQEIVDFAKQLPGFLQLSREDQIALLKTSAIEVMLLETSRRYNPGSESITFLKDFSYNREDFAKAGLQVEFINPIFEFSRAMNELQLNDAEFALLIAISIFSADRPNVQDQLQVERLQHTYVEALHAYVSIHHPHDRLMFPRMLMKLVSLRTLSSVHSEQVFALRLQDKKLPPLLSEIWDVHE
The series can be described thus: Agonist activity against human LXRalpha expressed in human HEK293T cells co-expressing CMX-GAL4N-hLXRalpha incubated for 24 hrs by reporter gene assay. In general terms: A reporter such as luciferase makes a cellular process visible.

Series [2] in a line: Toxicity in human HEK293 cells assessed as reduction in cell viability at 10 uM. The following applies: hek293, 10 µM.
The target in series [3] is T2, Oxysterols receptor LXR-beta (Homo sapiens, UniProt P55055).
T2 sequence (P55055 whole entry): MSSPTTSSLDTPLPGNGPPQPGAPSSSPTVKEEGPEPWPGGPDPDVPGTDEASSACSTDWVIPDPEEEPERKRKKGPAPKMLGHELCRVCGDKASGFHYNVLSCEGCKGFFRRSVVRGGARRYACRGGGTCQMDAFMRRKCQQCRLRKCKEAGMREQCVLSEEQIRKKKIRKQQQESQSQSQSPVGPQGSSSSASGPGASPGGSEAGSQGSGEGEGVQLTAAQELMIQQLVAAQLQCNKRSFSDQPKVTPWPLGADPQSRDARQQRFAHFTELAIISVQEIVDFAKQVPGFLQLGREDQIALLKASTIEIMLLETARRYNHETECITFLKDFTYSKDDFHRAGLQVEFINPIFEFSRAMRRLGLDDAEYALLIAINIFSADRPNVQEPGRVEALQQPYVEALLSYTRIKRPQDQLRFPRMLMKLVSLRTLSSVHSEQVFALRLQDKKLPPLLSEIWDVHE
Description: Agonist activity against human LXRbeta expressed in human HEK293T cells co-expressing CMX-GAL4N-hLXRbeta incubated for 24 hrs by reporter gene assay.

Series [4] concerns the target T3, Oxysterols receptor LXR-alpha (Homo sapiens) (UniProt Q13133).
T3 sequence (whole entry): T1 sequence (Q13133 whole entry)
Description: Partial agonist activity against human LXRalpha in human HEK293T cells incubated for 24 hrs by reporter gene assay relative to T0901317.

The target in series [5] is T4, Oxysterols receptor LXR-beta (Homo sapiens) (UniProt P55055).
T4 sequence (whole entry): T2 sequence (P55055 whole entry)
The series can be described thus: Partial agonist activity against human LXRbeta in human HEK293T cells incubated for 24 hrs by reporter gene assay T0901317.

Usually EC50 stands for the concentration needed to bring the measured effect to its halfway point.

In the case of `C[Si](C)(c1ccccc1)c1ccc(C(O)(C(F)(F)F)C(F)(F)F)cc1`, the EC50 in series [1] was determined as 2.15 µM; in series [3], 0.74 µM. Also, the Activity entry in series [2] is on record as “Non-Toxic”.

Turning to `C[Si](C)(Cc1ccccc1)c1ccc(C(O)(C(F)(F)F)C(F)(F)F)cc1`, the EC50 came out at 0.94 µM in series [1] and 0.72 µM in series [3]. Moreover, the Activity entry in series [2] is reported as “Non-Toxic”.

`OC(c1ccc([Si](Cc2ccccc2)(Cc2ccccc2)Cc2ccccc2)cc1)(C(F)(F)F)C(F)(F)F`: the results for the EC50 in series [1] and in series [3] were 4.98 µM and 1.98 µM, respectively. The Activity entry was “Non-Toxic” in series [2], 19% in series [4] and 27% in series [5].

As for `C=CC[Si](C)(C)c1ccc(C(O)(C(F)(F)F)C(F)(F)F)cc1`, the results for the concentration giving a half-maximal response (EC50) in series [1] and in series [3] were 0.5 µM and 0.45 µM, respectively. For the same compound, the Activity entry in series [2] is listed as “Non-Toxic”.

As for `C[Si](C)(CCCO)c1ccc(C(O)(C(F)(F)F)C(F)(F)F)cc1`, the values for the EC50 in series [1] and in series [3] were 4.45 µM and 4.03 µM, respectively. For the same compound, the Activity result in series [2] is on record as “Non-Toxic”.

On to `C=C[Si](C)(C)c1ccc(C(O)(C(F)(F)F)C(F)(F)F)cc1`, for which the EC50 was 2.06 µM in series [1] and 1.8 µM in series [3]. Besides, the Activity entry in series [2] is “Non-Toxic”.

For `O=S(=O)(c1ccccc1)N(CC(F)(F)F)c1ccc(C(O)(C(F)(F)F)C(F)(F)F)cc1` [T091317], in series [2], the Activity result is given as “Non-Toxic”.

Take `C[Si](C)(c1ccc(C(O)(C(F)(F)F)C(F)(F)F)cc1)C1CCCCC1`: the EC50 in series [1] stood at 1.43 µM; in series [3] it was 0.74 µM. Besides, the Activity result in series [2] is on record as “Non-Toxic”.

As to `CC(C)(C)[Si](C)(C)c1ccc(C(O)(C(F)(F)F)C(F)(F)F)cc1`, the EC50 turned out to be 1.13 µM in series [1] and 0.65 µM in series [3]. The Activity result in series [2] was “Non-Toxic”.

With `CC[Si](C)(CC)c1ccc(C(O)(C(F)(F)F)C(F)(F)F)cc1`, the EC50 was determined as 0.59 µM in series [1] and 0.69 µM in series [3]. For the same compound, the Activity result in series [2] is “Non-Toxic”.

Consider `C[Si](C)(C)c1ccc(C(O)(C(F)(F)F)C(F)(F)F)cc1`, for which the EC50 was 3.12 µM in series [1] and 1.41 µM in series [3]. In series [2], the Activity entry is reported as “Non-Toxic”.

As to `C[Si](C)(C)[Si](C)(C)c1ccc(C(O)(C(F)(F)F)C(F)(F)F)cc1`, the EC50 in series [1] was 0.58 µM; in series [3], 0.51 µM. Also, the Activity result in series [2] is reported as “Non-Toxic”.

For the compound `C[Si](C)(CCO)c1ccc(C(O)(C(F)(F)F)C(F)(F)F)cc1`, the EC50 is 1.46 µM in series [1] and 1.73 µM in series [3]. In addition, in series [2], the Activity result is recorded as “Non-Toxic”.

As to `C[Si](O)(c1ccccc1)c1ccc(C(O)(C(F)(F)F)C(F)(F)F)cc1` (stereo not given), the EC50 in series [1] was found to be 8.5 µM; in series [3] it was 5.03 µM. The Activity result in series [2] was “Non-Toxic”.

`CCCC[Si](C)(C)c1ccc(C(O)(C(F)(F)F)C(F)(F)F)cc1`: the figures for the EC50 in series [1] and in series [3] were 2.35 µM and 1.7 µM, respectively. For the same compound, in series [2], the Activity entry is “Non-Toxic”.

For the compound `CCC[Si](CCC)(CCC)c1ccc(C(O)(C(F)(F)F)C(F)(F)F)cc1`, the EC50 in series [1] turned out to be 0.43 µM; in series [3], 0.59 µM. In series [2], the Activity result is recorded as “Non-Toxic”.

Turning to `CC[Si](CC)(CC)c1ccc(C(O)(C(F)(F)F)C(F)(F)F)cc1`, the EC50 stood at 0.62 µM in series [1] and 0.53 µM in series [3]. Besides, in series [2], the Activity result was “Non-Toxic”.

With `CC(O)[Si](C)(C)c1ccc(C(O)(C(F)(F)F)C(F)(F)F)cc1` (stereo not given), the EC50 in series [1] stood at 4.45 µM; in series [3], 3.34 µM. For the same compound, the Activity result in series [2] is given as “Non-Toxic”.

As for `CN(c1ccc(C(O)(C(F)(F)F)C(F)(F)F)cc1)S(=O)(=O)c1ccccc1`, in series [2], the Activity result is given as “Non-Toxic”.

For the origin of these results see ChEMBL document CHEMBL5143705, “Design, synthesis and structure-activity relationship of 4-(1,1,1,3,3,3-hexafluoro-2-hydroxyisoprop-2-yl)phenylsilane derivatives as liver X receptor agonists” (Bioorg Med Chem, 2022).
